Where a chain is given by its changes, count along the chain named.
Assays:
hVAChT wild-type = target: T1, hVAChT wild-type (Homo sapiens, UniProt Q16572); assay: [3H]vesamicol saturation binding; conditions: WT hVAChT; pH 7.4; per mg postnuclear supernatant
T1 sequence (Q16572 1-532): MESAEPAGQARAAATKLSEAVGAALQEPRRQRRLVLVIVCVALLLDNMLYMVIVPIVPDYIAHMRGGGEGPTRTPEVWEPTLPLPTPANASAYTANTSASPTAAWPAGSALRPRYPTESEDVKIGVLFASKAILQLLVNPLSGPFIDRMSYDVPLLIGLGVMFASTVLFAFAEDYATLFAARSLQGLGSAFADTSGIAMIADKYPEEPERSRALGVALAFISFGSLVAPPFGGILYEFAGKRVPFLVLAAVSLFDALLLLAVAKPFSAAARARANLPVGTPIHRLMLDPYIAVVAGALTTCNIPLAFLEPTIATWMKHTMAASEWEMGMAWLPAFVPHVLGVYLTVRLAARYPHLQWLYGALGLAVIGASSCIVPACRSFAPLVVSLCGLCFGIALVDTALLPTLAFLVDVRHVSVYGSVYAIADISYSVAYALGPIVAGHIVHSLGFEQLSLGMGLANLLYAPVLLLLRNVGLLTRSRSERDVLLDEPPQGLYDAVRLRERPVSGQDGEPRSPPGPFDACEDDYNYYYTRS

hVAChT M316A [1] = target: T2, hVAChT M316A (Homo sapiens, UniProt Q16572, M316A); assay: [3H]vesamicol saturation binding; conditions: pH 7.4
T2 sequence (Q16572 1-532 M316A): T1 sequence (Q16572 1-532) with M316A

hVAChT M316A [2] = target: T2, hVAChT M316A; assay: ACh equilibrium binding by competition against [3H]vesamicol
hVAChT W325H = target: T3, hVAChT W325H (Homo sapiens, UniProt Q16572, W325H); assay: [3H]ACh transport; type: biochemical
T3 sequence (Q16572 1-532 W325H): T1 sequence (Q16572 1-532) with W325H

hVAChT A334F = target: T4, hVAChT A334F (Homo sapiens, UniProt Q16572, A334F); assay: ACh equilibrium binding by competition against [3H]vesamicol; conditions: pH 7.4, monophasic fit, FHA fixed to 1
T4 sequence (Q16572 1-532 A334F): T1 sequence (Q16572 1-532) with A334F

hVAChT C388A = target: T5, hVAChT C388A (Homo sapiens, UniProt Q16572, C388A); assay: as above
T5 sequence (Q16572 1-532 C388A): T1 sequence (Q16572 1-532) with C388A

SMILES	Bmax, maximal specific [3H]vesamicol binding (VAChT expression level) (hVAChT wild-type) [pmol/mg]	Bmax, maximal specific [3H]vesamicol binding (VAChT expression level) (hVAChT M316A [1]) [pmol/mg]	Kd (hVAChT M316A [2]) [mM]	FHA, fraction of the ACh sites that have high affinity (hVAChT M316A [2]; M316A hVAChT, pH 7.4)	Vmax/Bmax, ACh transport normalized to Bmax (hVAChT W325H; pH 7.4) [min⁻¹]	Km (hVAChT W325H; read-out: KM, Michaelis-Menten constant for ACh transport, pH 7.4) [µM]	FHA, fraction of the ACh sites that have high affinity (hVAChT A334F)	Kd (hVAChT C388A) [mM]	FHA, fraction of the ACh sites that have high affinity (hVAChT C388A; C388A hVAChT, pH 7.4)
O[C@@H]1CCCC[C@H]1N1CCC(c2ccccc2)CC1 (racemic) [vesamicol, ( )-trans-2-(4-phenylpiperidino)cyclohexanol]	50 ± 1	38 ± 2							
CC(=O)OCC[N+](C)(C)C [ACh, acetylcholine]			8.3 ± 0.7	0.74 ± 0.03	6.5 ± 1.1	480 ± 170	1.0	17 ± 4	0.88 ± 0.08
